In patent US9376420B2 (YUHAN CORPORATION, priority 2012, dated 2016) one finds Emax and EC50 data, which are given here for 18 compounds.

This test has as its target T1, human LXRβ (Homo sapiens, UniProt P55055).
T1 construct: expressed in transfected cells; host or cells: HEK293 cells (ATCC CRL-1573), transient transfection with pFA-hLXRβ/GAL4 and pUAS
T1 sequence (P55055 222-460 limits assumed): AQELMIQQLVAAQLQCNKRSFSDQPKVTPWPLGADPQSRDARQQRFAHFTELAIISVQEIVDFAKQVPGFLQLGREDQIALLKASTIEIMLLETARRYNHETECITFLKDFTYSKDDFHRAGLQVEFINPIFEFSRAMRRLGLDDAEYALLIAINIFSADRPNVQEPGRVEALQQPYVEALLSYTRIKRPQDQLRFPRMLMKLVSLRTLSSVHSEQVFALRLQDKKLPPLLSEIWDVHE
The test is described as follows: Assay for Transcriptional Activity of LXRβ (GAL4-hLXRβ LBD luciferase reporter, transient transfection). The test is classed as cell-based. The conditions noted are these: HEK293 cells transfected with pFA-hLXRβ/GAL4 and pUAS, 24 hours; for Emax: fold value in comparison with the control (DMSO-treated group); for EC50: increase of transcriptional activity of LXRβ, average of three independent tests. The method, boiled down: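 HEK293 cells transiently co-transfected with GAL4-hLXRβ LBD and 5×GAL4-UAS luciferase reporter, treated 24 h at 37 °C with compounds over 9 points (0.01–50 μM, half-log). Luminescence read after lysis; EC50 from four-parameter fit, mean of three independent tests, with a known LXR agonist as positive control.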

The EC50 is the midpoint of the concentration-response curve. A lower EC50 goes with an effect from little substance. In turn, `O=S1(=O)CCN(c2ccc(C3CC(C(O)(C(F)(F)F)C(F)(F)F)=NN3c3ccccc3Cl)cc2)CC1` (stereo not drawn) [Example 329, 1-(2-chloro-phenyl)-5-[4-(1,1-dioxo-thiomorpholin-4-yl)-phenyl]-3-[di-(trifluoromethyl)-hydroxy-methyl]-4,5-dihydro-1H-pyrazole] displayed an Emax of 39 fold and a 50% effective concentration (EC50) of 2030 nM.
Taken in the same sequence, the figures for `CNCCCS(=O)(=O)c1cccc(-c2ccc(C3CC(C(O)(C(F)(F)F)C(F)(F)F)=NN3c3ccccc3Cl)cc2)c1` (stereo not drawn) [Example 334, 1-(2-chloro-phenyl)-5-{3′-[3-(methyl-amino)-propane-1-sulfonyl]-biphenyl-4-yl}-3-[di-(trifluoromethyl)-hydroxy-methyl]-4,5-dihydro-1H-pyrazole] were 102 fold and 295 nM.
Turning to `CS(=O)(=O)c1ccc(-c2ccc(C3CC(C(O)(C(F)(F)F)C(F)(F)F)=NN3c3ccccc3Cl)cc2)cn1` (stereo not drawn) [Example 335, 1-(2-chloro-phenyl)-5-[4-(6-methanesulfonyl-pyridin-3-yl)-phenyl]-3-[di-(trifluoromethyl)-hydroxy-methyl]-4,5-dihydro-1H-pyrazole], the Emax is recorded as 94 fold and the half-maximal effective concentration (EC50) was determined as 136 nM.
In the same order, the values of `CCOc1cccc(-c2ccc(C3CC(C(O)(C(F)(F)F)C(F)(F)F)=NN3c3ccccc3F)cc2)c1` (stereo not drawn) [Example 336, 5-(3′-ethoxy-biphenyl-4-yl)-1-(2-fluoro-phenyl)-3-[di-(trifluoromethyl)-hydroxy-methyl]-4,5-dihydro-1H-pyrazole] are 72 fold and 1470 nM.
Compound `CCOc1cccc(-c2ccc(C3CC(C(O)(C(F)(F)F)C(F)(F)F)=NN3c3ccc(F)cc3F)cc2)c1` (stereo not drawn) [Example 337, 5-(3′-ethoxy-biphenyl-4-yl)-1-(2,4-difluoro-phenyl)-3-[di-(trifluoromethyl)-hydroxy-methyl]-4,5-dihydro-1H-pyrazole] had an Emax of 80 fold and an EC50 of 1070 nM.
Take `CSc1cccc(-c2ccc(C3CC(C(O)(C(F)(F)F)C(F)(F)F)=NN3c3ccccc3Cl)c(F)c2)c1` (stereo not drawn) [Example 338, 1-(2-chloro-phenyl)-5-(3-fluoro-3′-methylsulfanyl-biphenyl-4-yl)-3-[di-(trifluoromethyl)-hydroxy-methyl]-4,5-dihydro-1H-pyrazole]: the Emax stood at 87 fold and the half-maximal effective concentration (EC50) amounted to 850 nM.
Regarding `CCOc1cccc(-c2ccc(C3CC(C(O)(C(F)(F)F)C(F)(F)F)=NN3c3ccccc3Cl)c(F)c2)c1` (stereo not drawn) [Example 339, 1-(2-chloro-phenyl)-5-(3′-ethoxy-3-fluoro-biphenyl-4-yl)-3-[di-(trifluoromethyl)-hydroxy-methyl]-4,5-dihydro-1H-pyrazole], the Emax amounted to 71 fold and the concentration for a half-maximal effect (EC50) was 1110 nM.
With `Cc1ccccc1-c1ccc(C2CC(C(O)(C(F)(F)F)C(F)(F)F)=NN2c2ccccc2Cl)c(F)c1` (stereo not drawn) [Example 340, 1-(2-chloro-phenyl)-5-(3-fluoro-2′-methyl-biphenyl-4-yl)-3-[di-(trifluoromethyl)-hydroxy-methyl]-4,5-dihydro-1H-pyrazole], the Emax is on record as 101 fold and it took 780 nM to reach a half-maximal effect (EC50).
As to `CC(=O)c1ccc(-c2ccc(C3CC(C(O)(C(F)(F)F)C(F)(F)F)=NN3c3ccccc3Cl)c(F)c2)cc1` (stereo not drawn) [Example 341, 1-(2-chloro-phenyl)-5-(4′-acetyl-3-fluoro-biphenyl-4-yl)-3-[di-(trifluoromethyl)-hydroxy-methyl]-4,5-dihydro-1H-pyrazole], the Emax is recorded as 112 fold and a half-maximal effect (EC50) was put at 353 nM.
In the same order, the values of `CC(C)(C)OC(=O)N1CC=C(c2ccc(C3CC(C(O)(C(F)(F)F)C(F)(F)F)=NN3c3ccccc3Cl)c(F)c2)CC1` (stereo not drawn) [Example 342, 1-(2-chloro-phenyl)-5-[2-fluoro-4-(1-BOC-1,2,3,6-tetrahydropyridin-4-yl)-phenyl]-3-[di-(trifluoromethyl)-hydroxy-methyl]-4,5-dihydro-1H-pyrazole] are 21 fold and 4070 nM.
In the same order, the values of `COc1ccc(-c2ccc(C3CC(C(O)(C(F)(F)F)C(F)(F)F)=NN3c3ccccc3Cl)c(F)c2)cn1` (stereo not drawn) [Example 343, 1-(2-chloro-phenyl)-5-[2-fluoro-4-(6-methoxy-pyridin-3-yl)-phenyl]-3-[di-(trifluoromethyl)-hydroxy-methyl]-4,5-dihydro-1H-pyrazole] are 81 fold and 617 nM.
`OC(C1=NN(c2ccccc2Cl)C(c2ccc(-c3ccc(F)cc3)cc2F)C1)(C(F)(F)F)C(F)(F)F` (stereo not drawn) [Example 344, 1-(2-chloro-phenyl)-5-(3,4′-difluoro-biphenyl-4-yl)-3-[di-(trifluoromethyl)-hydroxy-methyl]-4,5-dihydro-1H-pyrazole] displayed an Emax of 53 fold and an EC50 of 989 nM.
`C[S+]([O-])c1cccc(-c2ccc(C3CC(C(O)(C(F)(F)F)C(F)(F)F)=NN3c3ccccc3Cl)c(F)c2)c1` (stereo not drawn) [Example 345, 1-(2-chloro-phenyl)-5-(3-fluoro-3′-methanesulfinyl-biphenyl-4-yl)-3-[di-(trifluoromethyl)-hydroxy-methyl]-4,5-dihydro-1H-pyrazole]: the Emax was found to be 42 fold and the 50% effective concentration (EC50) stood at 71 nM.
As to `CS(=O)(=O)c1cccc(-c2ccc(C3CC(C(O)(C(F)(F)F)C(F)(F)F)=NN3c3ccccc3Cl)c(F)c2)c1` (stereo not drawn) [Example 347, 1-(2-chloro-phenyl)-5-(3-fluoro-3′-methanesulfonyl-biphenyl-4-yl)-3-[di-(trifluoromethyl)-hydroxy-methyl]-4,5-dihydro-1H-pyrazole], the Emax amounted to 62 fold and the midpoint of the response, the EC50, lay at 42 nM.
Taken in the same sequence, the figures for `CC(=O)c1ccccc1-c1ccc(C2CC(C(O)(C(F)(F)F)C(F)(F)F)=NN2c2ccccc2Cl)cn1` (stereo not drawn) [Example 348, 5-[6-(2-acetyl-phenyl)-pyridin-3-yl]-1-(2-chloro-phenyl)-3-[di-(trifluoromethyl)-hydroxy-methyl]-4,5-dihydro-1H-pyrazole] were 45 fold and 991 nM.
`COc1cccc(-c2ccc(C3CC(C(O)(C(F)(F)F)C(F)(F)F)=NN3c3ccccc3Cl)cn2)c1` (stereo not drawn) [Example 349, 1-(2-chloro-phenyl)-5-[6-(3-methoxy-phenyl)-pyridin-3-yl]-3-[di-(trifluoromethyl)-hydroxy-methyl]-4,5-dihydro-1H-pyrazole] yielded an Emax of 60 fold and a concentration for a half-maximal effect (EC50) of 772 nM.
Taken in the same sequence, the figures for `OC(C1=NN(c2ccccc2Cl)C(c2ccc(-c3ccc(F)cc3)nc2)C1)(C(F)(F)F)C(F)(F)F` (stereo not drawn) [Example 353, 1-(2-chloro-phenyl)-5-[6-(4-fluoro-phenyl)-pyridin-3-yl]-3-[di-(trifluoromethyl)-hydroxy-methyl]-4,5-dihydro-1H-pyrazole] were 94 fold and 473 nM.
As to `CC(C)(C)OC(=O)N1CCN(c2ccc(C3CC(C(O)(C(F)(F)F)C(F)(F)F)=NN3c3ccccc3Cl)cn2)CC1` (stereo not drawn) [Example 355, 1-(2-chloro-phenyl)-5-[6-(4-BOC-piperazin-1-yl)-pyridin-3-yl]-3-[di-(trifluoromethyl)-hydroxy-methyl]-4,5-dihydro-1H-pyrazole], the Emax turned out to be 43 fold and the EC50 turned out to be 4130 nM.
